The values that follow are results of earlier work, collected in publication PMC4008261, “Rewiring of regenerated axons by combining treadmill training with semaphorin3A inhibition” (Molecular Brain, 2014).

In one data set the test system is SCT adult rats. Details: method as in PMID 17099709. The conditions noted are these: adult rats after total spinal cord transection (SCT), osmotic mini-pump; cited from earlier work.
The subject of a further data set is semaphorin3A. Details: method as in PMID 17099709. The following applies: in vitro and in vivo; cited from earlier work.

Turning to `CC(=O)c1c(C)c(/C(O)=C2\COc3cc(O)c(O)c(C(=O)O)c3C2=O)cc2c(=O)c3c(C(=O)O)c(O)c(O)cc3oc12` [SM-216289, xanthofulvin], in the data set with SCT adult rats, the “axonal regeneration and motor function recovery” value is “led to axonal regeneration and motor function recovery”. In addition, in the data set with semaphorin3A, the “inhibition of semaphorin3A signaling” value was “selectively inhibits semaphorin3A signaling both in vitro and in vivo”.
